For 80 molecules, RP-LC retention time results are on record in the METLIN SMRT retention time set (Domingo-Almenara et al. 2019).

This data set in a line: gradient 5% acetonitrile 3 min, to 50% in 2 min, to 85% in 15 min, held 3 min, 100 µL/min. Particulars: column: Zorbax Extend-C18 2.1 x 50 mm; eluents: water / acetonitrile, 0.1% formic acid. Put shortly:
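The mobile phases were water and acetonitrile, each with 0.1% formic acid, pumped at 100 μL/min through a Zorbax Extend-C18 column (2.1 × 50 mm, 1.8 μm). Pure standards were injected as mixtures of ~100 molecules and detected by a quadrupole time-of-flight mass spectrometer in positive and negative ionization mode. Retention time came from computationally picked adduct peaks, each inspected by hand.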
For `COc1ccc(CN2CCC3(CC2)CC(C)(O)CCO3)cc1OC` (stereo not given), the RP-LC retention time worked out at 583 s. Turning to `O=C(Nc1c(C(=O)Nc2ccccc2F)oc2ccccc12)c1ccc(Br)o1`, the RP-LC retention time was 1190 s. The molecule `Cc1ccc(C)c(N2CCN(c3ccnc(SCC(=O)NCCCc4ccccc4)n3)CC2)c1` displayed an RP-LC retention time of 1060 s. For `COc1ccc(C(=O)N2CCN(C(=O)c3ccco3)CC2)nn1`, the RP-LC retention time was found to be 576 s. In turn, `CN(C)C[C@@H]1CN(c2ccncn2)C[C@H]1NC(=O)c1ccc2ccccc2n1` showed an RP-LC retention time of 595 s.

As to `CCOc1ccc(NC(=O)c2cn3c(n2)CCCC3)cc1`, the RP-LC retention time came out at 614 s. Molecule `CCCCN(C)C(=O)Cn1nc(C)c2c(C)n(-c3ccccc3)nc2c1=O` returned an RP-LC retention time of 787 s. Turning to `Cc1ccc2c(Nc3ccc(S(N)(=O)=O)cc3)c(C(=O)N3CCC(C)CC3)cnc2n1`, the RP-LC retention time was found to be 582 s.

The molecule `COc1ccccc1CC(=O)Nc1ccc2c(c1)CCC(=O)N2` came in with an RP-LC retention time of 670 s. For the molecule `CN1CCN(CCNC(=O)CCCn2c(=O)c3cccn3c3ccc(F)cc32)CC1`, the RP-LC retention time was 588 s. The molecule `Cc1ccc(Nc2nc(C)cc3nn(CC(=O)Nc4ccc(N(C)C)cc4)c(=O)n23)cc1` yielded an RP-LC retention time of 800 s.

`CCOC(=O)c1ccc(NC(=O)C2(c3cccs3)CCOCC2)cc1` came in with an RP-LC retention time of 956 s.

`COc1ccc(C(C)NC(=O)Cn2c(C)cc(-c3nnc(C4CCC4)o3)c2C)cc1` (stereo not given): the RP-LC retention time worked out at 866 s. On to `CCN(C(=O)c1ccccc1)c1nc(-c2ccccc2)cs1`, for which the RP-LC retention time was 1230 s. For `COc1ccc(-c2nc3ccccn3c2NC(=O)c2cccc([N+](=O)[O-])c2)cc1`, the RP-LC retention time is 659 s. The molecule `CC(C)n1c(CN2CCCC2)nc2cc(NC(=O)c3ccco3)ccc21` yielded an RP-LC retention time of 610 s. `COCCNC(=O)C1CCCCN1S(=O)(=O)c1ccc(F)cc1` (stereo not given) registered an RP-LC retention time of 769 s. Take `CCn1nc(C)c(CCNC(=O)c2cc3c(=O)n(Cc4cccnc4)ccc3nc2C)c1C`: the RP-LC retention time turned out to be 563 s. Molecule `COCCC1CCN(C(=O)c2n[nH]c3ccccc23)CC1` showed an RP-LC retention time of 709 s. Turning to `COc1ccc(NC(=O)c2nnc(CSCC(=O)NCCc3c[nH]c4ccc(C)cc34)s2)cc1`, the RP-LC retention time turned out to be 910 s. The figure for `O=C(COc1cccc(Cl)c1)Nc1nc(-c2ccc(Br)cc2)cs1` is 1260 s; for `O=C(Nc1cnc(N2CCCCC2)nc1)c1cc(F)ccc1F` it is 952 s. `O=C(NCc1cccnc1)c1ccc2c(c1)N(CC(=O)N1CCCC1)C(=O)CO2` displayed an RP-LC retention time of 619 s. Take `COC(=O)c1cccc(-c2nc(-c3cn(Cc4ccccc4)nn3)no2)c1`: the RP-LC retention time worked out at 964 s.

`Cc1ccc(NC(=O)Cn2nc(N3CCSCC3)c3ccccc3c2=O)cc1Cl`: the RP-LC retention time turned out to be 970 s.

`CCc1nnc(NC(=O)c2ccoc2COc2ccc(C)cc2)s1`: the RP-LC retention time was 803 s.

Consider `O=C(Cn1c(N2CCCCC2)nc2ccccc2c1=O)N1CCN(c2ccccn2)CC1`, for which the RP-LC retention time was 643 s. `COCCOCc1nc(C2CCN(S(=O)(=O)c3c(C)noc3C)CC2)no1` registered an RP-LC retention time of 793 s.

For `COc1ccc(-c2coc3cc(OC(=O)N(C)C)cc(O)c3c2=O)cc1OC`, the RP-LC retention time turned out to be 858 s.

Turning to `CCOC(=O)c1c(S(=O)(=O)NCCN2CCc3ccccc3C2)c(C)n(C)c1C`, the RP-LC retention time stood at 675 s. `O=C(Cc1ccccc1Cl)N1CCC2(CC1)N=C(c1ccccc1)NO2` had an RP-LC retention time of 841 s. The figure for `CCCNC(=O)Cn1cnc2sc(C(=O)N3CC(C)CC(C)C3)c(C)c2c1=O` (stereo not given) is 779 s; for `CC1(C(=O)NC2CCCC2)Cn2cnc(C(=O)NCCCc3ccccc3)c2C(=O)N1C1CC1` (stereo not given) it is 823 s; for `CN(C)[C@@H]1CN(C(=O)COc2ccc(Cl)cc2)C[C@H]1CO` it is 598 s. Molecule `CCN1C(=O)Cc2ccccc2C1C(=O)NCc1ccco1` (stereo not given) had an RP-LC retention time of 690 s. The figure for `CCOc1cc(C(=O)N2CCN(c3cc(=O)n(C)c(=O)n3C)CC2)cc(OCC)c1OCC` is 730 s.

In the case of `O=S(=O)(c1ccc(-c2cc(C(F)(F)F)on2)o1)N1CCCCC1`, the RP-LC retention time is 1110 s. `Cc1nn(-c2ccccc2)c2c1N(CC(=O)NCCC1=CCCCC1)C(=O)CS2`: the RP-LC retention time came to 811 s. The figure for `O=C(CCCSc1ccc(NC(=O)c2cccs2)nn1)NCc1ccco1` is 714 s; for `COc1cccc(Oc2ncc(-c3cccc(C(=O)NC4CC4)c3)cn2)c1` it is 797 s. Regarding `Cc1noc2nc(CCC(=O)NCCCN3CCc4ccccc4C3)nc(N3CCCCC3)c12`, the RP-LC retention time was 670 s.

`O=S(=O)(Cc1ccc(F)cc1)NCCc1csc2nc(-c3cccs3)nn12`: the RP-LC retention time was 822 s. For the molecule `Cc1ccc(NC(=O)N2CCc3c(c(-c4nnc(-c5ccc(F)cc5)o4)nn3C)C2)c(Cl)c1`, the RP-LC retention time is 944 s. As for `COc1ccc(-c2cnn(CC(=O)Nc3cc(F)cc(F)c3)c(=O)n2)cc1`, the RP-LC retention time is 872 s. The result for `CCc1ccc(CN2C[C@@H]3C(=O)N(CCOC)C(=O)[C@@H]3C2)cc1` reads 631 s; that for `O=C(CSCc1ccccc1)NCC#CCN1CCc2ccccc2C1`, 581 s; that for `Cn1c(-c2cccs2)c(CNC(=O)Nc2ccc3c(c2)OCO3)c2ccccc21`, 1010 s. Regarding `O=C(Cn1nc(N2CCCC2)c2ccccc2c1=O)Nc1ccc2c(c1)OCO2`, the RP-LC retention time worked out at 854 s. The figure for `CCC(=O)Nc1ccc(-n2cnc(C(=O)N3CCC4(CC3)OCCO4)c2)nc1` is 616 s; for `CCN(CC)c1nc2cc(C(=O)OC)ccc2c(=O)n1-c1cccc(F)c1` it is 1120 s.

Take `CCNC(=O)c1ccc2nc(C)c(C)nc2c1`: the RP-LC retention time was determined as 618 s. `Cc1ccc(S(=O)(=O)N2CCc3c(c(-c4nnc(-c5ccc(F)cc5)o4)nn3C)C2)c(C)c1`: the RP-LC retention time was 1060 s.

Turning to `COc1cc(NC(=O)N2CC3CCCN3c3ccccc32)cc(OC)c1OC` (stereo not given), the RP-LC retention time was 702 s. Molecule `Cc1sc2ccn(C)c(=O)c2c1C(=O)N1CCCCCC1` had an RP-LC retention time of 705 s. Molecule `CCCNC(=O)CCc1nc2ccccc2n(CC(=O)NCc2ccc(C)cc2)c1=O` came in with an RP-LC retention time of 786 s. In turn, `CC(C)CCNC(=O)N1CCN(Cc2nc3ccc(Cl)cc3o2)CC1` registered an RP-LC retention time of 746 s. `COc1ccccc1N1CCN(C(=O)c2csc3nc(-c4ccc(F)cc4)cn23)CC1` came in with an RP-LC retention time of 879 s. With `Cc1ccc(S(=O)(=O)CCc2noc(-c3ccc4c(c3)OCO4)n2)cc1`, the RP-LC retention time stood at 931 s. In turn, `O=C(CN1C(=O)CC(c2cccs2)=Nc2ccccc21)NC1CCCCC1` displayed an RP-LC retention time of 884 s. The figure for `CCOC(=O)C1=C(CN2CCN(CC)CC2)NC(=O)NC1c1ccccc1Cl` (stereo not given) is 571 s; for `Cc1cccc(Nc2c(-c3cc(Br)ccc3O)nc3ncccn23)c1` it is 1020 s; for `O=C(NCCNc1cc(-n2cccn2)ncn1)c1c[nH]c2ccccc12` it is 646 s. In the case of `COc1ccc(C2OC(c3cc(Cl)ccc3OC(C)=O)=NN2C(C)=O)cc1` (stereo not given), the RP-LC retention time was determined as 956 s. For the molecule `O=C(CCc1nnn2c1CN(C(=O)c1ccccc1)CC2)NC1CC1`, the RP-LC retention time was 604 s. In turn, `CCc1ccccc1NC(=O)CN1C(=O)NC2(CCCCC2)C1=O` displayed an RP-LC retention time of 761 s. The molecule `Cc1sc2c(c1C)C(c1ccc(Cl)cc1)=N[C@@H](CC(=O)Nc1ccc(O)cc1)c1nnc(C)n1-2` showed an RP-LC retention time of 922 s. For the molecule `O=C(NCCCN1CCCC1=O)c1c(OCC2CC2)cc(=O)n2c1CCCCC2`, the RP-LC retention time came out at 602 s. With `CN1CCN(C(=O)c2nnc(-c3ccc(S(=O)(=O)N4CCCC4)cc3)o2)CC1`, the RP-LC retention time came to 594 s. With `O=C(Cc1cccs1)NC1CC(=O)N(Cc2ccccc2)C1` (stereo not given), the RP-LC retention time stood at 712 s.

Consider `COc1cccc(S(=O)(=O)N2CCc3nc(-c4ccc(Cl)cc4)ncc3C2)c1`, for which the RP-LC retention time came to 1200 s. `CC(C)(C)NC(=O)N(Cc1ccsc1)CC(F)(F)F` registered an RP-LC retention time of 925 s.

Turning to `C=CCNc1nc(-c2ccc(Cl)cc2)cs1`, the RP-LC retention time was determined as 984 s. `O=C(CSc1nc(-c2cccc([N+](=O)[O-])c2)cs1)NCc1ccc2c(c1)OCO2`: the RP-LC retention time stood at 865 s. The molecule `Cc1cc(N2CCN(C)CC2)nc2ccc(NC(=S)N3CCCCCC3)cc12` returned an RP-LC retention time of 556 s. For the molecule `COc1ccc(NC(=O)N2CCC(n3c(-c4ccco4)nc4cccnc43)C2)cc1` (stereo not given), the RP-LC retention time was 708 s. Consider `CN1CCN(CCNC(=O)C2CCN(Cc3cn(C)c4ccc(Cl)cc34)CC2)CC1`, for which the RP-LC retention time was 570 s. `CC(C)(C)CC(=O)N1CCCC(c2nc(CNC(=O)C3CCC3)cs2)C1` (stereo not given) gave an RP-LC retention time of 774 s. In the case of `Cc1cc(C)nc(N2CCC(NC(=O)c3cccc4nccnc34)CC2)n1`, the RP-LC retention time was found to be 650 s. The result for `COc1ccc(-c2nnc(-c3cc(S(=O)(=O)N4CCSCC4)ccc3Cl)o2)cc1` reads 1080 s.

Molecule `CCN1CCC2(CC1)OC(=O)C(C)=C2C(=O)N1CCN(c2cccc(OC)c2)CC1` yielded an RP-LC retention time of 634 s.
